Source: ChEMBL document CHEMBL3885861, “Open TG-GATES”

Organism: Rattus norvegicus
Assay: Open TG-GATES - Regimen: Daily Repeat
Format: toxicity, organism-based, Sprague-Dawley
Parameters: regimen Daily Repeat, gender Male, age 6 weeks
Settings: in vivo, po, route gavage; for APTT / Bas / Eos / Fbg / Hb / Ht / Lym / MCH / MCHC / MCV / Mono / Neu / PT / Plat / RBC / Ret / WBC: tissue Blood; for KIDNEY_L / KIDNEY_R / KIDNEY_TOTAL: tissue Kidney; for LIVER: tissue Liver; for ALP / ALT / AST / BUN / CRE / Ca / Cl / DBIL / GLC / IP / K / LDH / Na / PL / RALB / TBIL / TC / TG / TP / gamma-GTP: tissue Plasma
[1] = 5 mg/kg, 72 h, dose level Middle, time 3 day
[2] = 5 mg/kg, […], dose level Middle, time 7 day
[3] = 5 mg/kg, […], dose level Middle, time 14 day
[4] = 5 mg/kg, […], dose level Middle, time 28 day
[5] = 15 mg/kg, 72 h, dose level High, time 3 day
[6] = 15 mg/kg, […], dose level High, time 7 day
[7] = 15 mg/kg, […], dose level High, time 14 day
[8] = 15 mg/kg, […], dose level High, time 28 day

O=P1(N(CCCl)CCCl)NCCCO1 (stereo unspecified) [CYCLOPHOSPHAMIDE ANHYDROUS]
TERMINAL_BW [1]: 226.6 g
APTT [1]: 21.9 s
Bas [1]: 0%
Eos [1]: 1%
Fbg [1]: 272.4 mg/dL
Hb [1]: 13 g/dL
Ht [1]: 39.1%
Lym [1]: 81.6%
MCH [1]: 21.9 pg
MCHC [1]: 33.2%
MCV [1]: 65.8 fL
Mono [1]: 2.4%
Neu [1]: 14%
PT [1]: 16.9 s
Plat [1]: 114.8 x10_4/uL
RBC [1]: 593 x10_4/ul
Ret [1]: 6.3%
WBC [1]: 54.2 x10_2/uL
KIDNEY_L [1]: 1 g
KIDNEY_R [1]: 1 g
KIDNEY_TOTAL [1]: 2 g
LIVER [1]: 10.7 g
ALP [1]: 1691.2 IU/L
ALT [1]: 40.6 IU/L
AST [1]: 68.6 IU/L
BUN [1]: 17 mg/dL
CRE [1]: 0.2 mg/dL
Ca [1]: 10.9 mg/dL
Cl [1]: 104.6 meq/L
DBIL [1]: 0.002 mg/dL
GLC [1]: 182.8 mg/dL
IP [1]: 8 mg/dL
K [1]: 4.1 meq/L
LDH [1]: 172 IU/L
Na [1]: 141.6 meq/L
PL [1]: 149.6 mg/dL
RALB [1]: 3 g/dL
TBIL [1]: 0.022 mg/dL
TC [1]: 75.4 mg/dL
TG [1]: 94.4 mg/dL
TP [1]: 5.5 g/dL
gamma-GTP [1]: 1 IU/L
TERMINAL_BW [2]: 245.9 g
TERMINAL_BW [3]: 288.6 g
TERMINAL_BW [4]: 359.3 g
APTT [2]: 22 s
Bas [2]: 0%
Eos [2]: 0.6%
Fbg [2]: 273.8 mg/dL
Hb [2]: 13.5 g/dL
Ht [2]: 40.4%
Lym [2]: 82.4%
MCH [2]: 20.9 pg
MCHC [2]: 33.4%
MCV [2]: 62.7 fL
Mono [2]: 3.2%
Neu [2]: 12.6%
PT [2]: 15.8 s
Plat [2]: 133.9 x10_4/uL
RBC [2]: 644.2 x10_4/ul
Ret [2]: 5.3%
WBC [2]: 36.4 x10_2/uL
APTT [3]: 22 s
Bas [3]: 0%
Eos [3]: 1.4%
Fbg [3]: 305.8 mg/dL
Hb [3]: 13.8 g/dL
Ht [3]: 40.5%
Lym [3]: 75.2%
MCH [3]: 20.4 pg
MCHC [3]: 34%
MCV [3]: 59.9 fL
Mono [3]: 4.6%
Neu [3]: 17.2%
PT [3]: 14.6 s
Plat [3]: 116.3 x10_4/uL
RBC [3]: 676.8 x10_4/ul
Ret [3]: 3.5%
WBC [3]: 27.7 x10_2/uL
APTT [4]: 21.7 s
Bas [4]: 0%
Eos [4]: 1.4%
Fbg [4]: 308 mg/dL
Hb [4]: 14.5 g/dL
Ht [4]: 42.5%
Lym [4]: 73%
MCH [4]: 19.3 pg
MCHC [4]: 34.3%
MCV [4]: 56.5 fL
Mono [4]: 3.6%
Neu [4]: 20.8%
PT [4]: 16 s
Plat [4]: 110.7 x10_4/uL
RBC [4]: 752.2 x10_4/ul
Ret [4]: 3%
WBC [4]: 35.5 x10_2/uL
KIDNEY_L [2]: 1 g
KIDNEY_R [2]: 1 g
KIDNEY_TOTAL [2]: 2 g
KIDNEY_L [3]: 1.2 g
KIDNEY_R [3]: 1.2 g
KIDNEY_TOTAL [3]: 2.3 g
KIDNEY_L [4]: 1.3 g
KIDNEY_R [4]: 1.3 g
KIDNEY_TOTAL [4]: 2.6 g
LIVER [2]: 10.8 g
LIVER [3]: 12.3 g
LIVER [4]: 14.6 g
ALP [2]: 1412.8 IU/L
ALT [2]: 38.2 IU/L
AST [2]: 65 IU/L
BUN [2]: 18.8 mg/dL
CRE [2]: 0.2 mg/dL
Ca [2]: 11 mg/dL
Cl [2]: 105.6 meq/L
DBIL [2]: 0 mg/dL
GLC [2]: 180.4 mg/dL
IP [2]: 6.8 mg/dL
K [2]: 3.9 meq/L
LDH [2]: 130 IU/L
Na [2]: 142.8 meq/L
PL [2]: 141.6 mg/dL
RALB [2]: 2.9 g/dL
TBIL [2]: 0.016 mg/dL
TC [2]: 74.6 mg/dL
TG [2]: 115.2 mg/dL
TP [2]: 5.5 g/dL
gamma-GTP [2]: 1.4 IU/L
ALP [3]: 1134.4 IU/L
ALT [3]: 36.6 IU/L
AST [3]: 57.2 IU/L
BUN [3]: 17.2 mg/dL
CRE [3]: 0.2 mg/dL
Ca [3]: 10.6 mg/dL
Cl [3]: 108.6 meq/L
DBIL [3]: 0 mg/dL
GLC [3]: 171 mg/dL
IP [3]: 7.1 mg/dL
K [3]: 4 meq/L
LDH [3]: 148.8 IU/L
Na [3]: 143.6 meq/L
PL [3]: 150.4 mg/dL
RALB [3]: 3 g/dL
TBIL [3]: 0.016 mg/dL
TC [3]: 80.4 mg/dL
TG [3]: 129.2 mg/dL
TP [3]: 5.7 g/dL
gamma-GTP [3]: 1 IU/L
ALP [4]: 973.8 IU/L
ALT [4]: 34.4 IU/L
AST [4]: 57.8 IU/L
BUN [4]: 16.8 mg/dL
CRE [4]: 0.2 mg/dL
Ca [4]: 10.5 mg/dL
Cl [4]: 106.6 meq/L
DBIL [4]: 0.002 mg/dL
GLC [4]: 190.2 mg/dL
IP [4]: 6.5 mg/dL
K [4]: 3.8 meq/L
LDH [4]: 133 IU/L
Na [4]: 144 meq/L
PL [4]: 135.8 mg/dL
RALB [4]: 3.1 g/dL
TBIL [4]: 0.024 mg/dL
TC [4]: 68.8 mg/dL
TG [4]: 111.6 mg/dL
TP [4]: 5.9 g/dL
gamma-GTP [4]: 1.2 IU/L
TERMINAL_BW [5]: 216.4 g
APTT [5]: 19.7 s
Bas [5]: 0%
Eos [5]: 1%
Fbg [5]: 279.6 mg/dL
Hb [5]: 12.9 g/dL
Ht [5]: 38.7%
Lym [5]: 73.8%
MCH [5]: 21.8 pg
MCHC [5]: 33.3%
MCV [5]: 65.5 fL
Mono [5]: 1.4%
Neu [5]: 23.8%
PT [5]: 16.8 s
Plat [5]: 121.4 x10_4/uL
RBC [5]: 590.2 x10_4/ul
Ret [5]: 1.6%
WBC [5]: 25.1 x10_2/uL
KIDNEY_L [5]: 1 g
KIDNEY_R [5]: 1 g
KIDNEY_TOTAL [5]: 1.9 g
LIVER [5]: 10.1 g
ALP [5]: 1493.4 IU/L
ALT [5]: 36.8 IU/L
AST [5]: 65.2 IU/L
BUN [5]: 16.4 mg/dL
CRE [5]: 0.2 mg/dL
Ca [5]: 10.6 mg/dL
Cl [5]: 106.4 meq/L
DBIL [5]: 0 mg/dL
GLC [5]: 187.6 mg/dL
IP [5]: 7.8 mg/dL
K [5]: 3.9 meq/L
LDH [5]: 169.2 IU/L
Na [5]: 142.6 meq/L
PL [5]: 148.2 mg/dL
RALB [5]: 2.9 g/dL
TBIL [5]: 0.008 mg/dL
TC [5]: 78.8 mg/dL
TG [5]: 95 mg/dL
TP [5]: 5.5 g/dL
gamma-GTP [5]: 1 IU/L
TERMINAL_BW [6]: 231.7 g
TERMINAL_BW [7]: 252.5 g
TERMINAL_BW [8]: 239.3 g
APTT [6]: 22.1 s
Bas [6]: 0%
Eos [6]: 1%
Fbg [6]: 277.2 mg/dL
Hb [6]: 13.1 g/dL
Ht [6]: 38.8%
Lym [6]: 77%
MCH [6]: 21 pg
MCHC [6]: 33.6%
MCV [6]: 62.5 fL
Mono [6]: 1.2%
Neu [6]: 20.4%
PT [6]: 15.2 s
Plat [6]: 81.8 x10_4/uL
RBC [6]: 622 x10_4/ul
Ret [6]: 2.8%
WBC [6]: 12.8 x10_2/uL
APTT [7]: 21 s
Bas [7]: 0%
Eos [7]: 0.8%
Fbg [7]: 278.4 mg/dL
Hb [7]: 12.8 g/dL
Ht [7]: 37.3%
Lym [7]: 63%
MCH [7]: 21.1 pg
MCHC [7]: 34.2%
MCV [7]: 61.8 fL
Mono [7]: 3%
Neu [7]: 32.2%
PT [7]: 14.1 s
Plat [7]: 107 x10_4/uL
RBC [7]: 604.8 x10_4/ul
Ret [7]: 2.3%
WBC [7]: 4.7 x10_2/uL
APTT [8]: 20.4 s
Bas [8]: 0%
Eos [8]: 2%
Fbg [8]: 277.6 mg/dL
Hb [8]: 9.3 g/dL
Ht [8]: 27.9%
Lym [8]: 20.8%
MCH [8]: 20.7 pg
MCHC [8]: 33.5%
MCV [8]: 62 fL
Mono [8]: 3.8%
Neu [8]: 69.2%
PT [8]: 17.7 s
Plat [8]: 79.2 x10_4/uL
RBC [8]: 448 x10_4/ul
Ret [8]: 8.3%
WBC [8]: 17.2 x10_2/uL
KIDNEY_L [6]: 0.9 g
KIDNEY_R [6]: 1 g
KIDNEY_TOTAL [6]: 1.9 g
KIDNEY_L [7]: 1 g
KIDNEY_R [7]: 1 g
KIDNEY_TOTAL [7]: 2.1 g
KIDNEY_L [8]: 1.1 g
KIDNEY_R [8]: 1.1 g
KIDNEY_TOTAL [8]: 2.1 g
LIVER [6]: 10.9 g
LIVER [7]: 11.4 g
LIVER [8]: 9.6 g
ALP [6]: 1013 IU/L
ALT [6]: 32.2 IU/L
AST [6]: 59 IU/L
BUN [6]: 16.6 mg/dL
CRE [6]: 0.2 mg/dL
Ca [6]: 10.8 mg/dL
Cl [6]: 106.8 meq/L
DBIL [6]: 0 mg/dL
GLC [6]: 178.8 mg/dL
IP [6]: 6.5 mg/dL
K [6]: 4.1 meq/L
LDH [6]: 200 IU/L
Na [6]: 143 meq/L
PL [6]: 144.8 mg/dL
RALB [6]: 2.8 g/dL
TBIL [6]: 0.018 mg/dL
TC [6]: 71.2 mg/dL
TG [6]: 139.6 mg/dL
TP [6]: 5.4 g/dL
gamma-GTP [6]: 1 IU/L
ALP [7]: 573.6 IU/L
ALT [7]: 19.8 IU/L
AST [7]: 40.8 IU/L
BUN [7]: 18.6 mg/dL
CRE [7]: 0.2 mg/dL
Ca [7]: 10.4 mg/dL
Cl [7]: 109.8 meq/L
DBIL [7]: 0.002 mg/dL
GLC [7]: 175.6 mg/dL
IP [7]: 6.2 mg/dL
K [7]: 4.2 meq/L
LDH [7]: 136 IU/L
Na [7]: 143.4 meq/L
PL [7]: 146 mg/dL
RALB [7]: 2.8 g/dL
TBIL [7]: 0.016 mg/dL
TC [7]: 73.6 mg/dL
TG [7]: 142.4 mg/dL
TP [7]: 5.4 g/dL
gamma-GTP [7]: 1.2 IU/L
ALP [8]: 471.2 IU/L
ALT [8]: 35.8 IU/L
AST [8]: 104.8 IU/L
BUN [8]: 30 mg/dL
CRE [8]: 0.2 mg/dL
Ca [8]: 9.7 mg/dL
Cl [8]: 114.2 meq/L
DBIL [8]: 0.05 mg/dL
GLC [8]: 165.6 mg/dL
IP [8]: 7.3 mg/dL
K [8]: 3.9 meq/L
LDH [8]: 516.4 IU/L
Na [8]: 145.8 meq/L
PL [8]: 122 mg/dL
RALB [8]: 2.6 g/dL
TBIL [8]: 0.1 mg/dL
TC [8]: 69.6 mg/dL
TG [8]: 74.4 mg/dL
TP [8]: 5.1 g/dL
gamma-GTP [8]: 1.6 IU/L
